Reference: patent US9796716B2, “Selective inhibitors of Tec and Src protein kinase families” (Pharmascience, Inc., priority 2012, dated 2017)

Columns and labels:
[1] = biological target: recombinant human full-length Bruton Agammaglobulinemia Tyrosine Kinase (Btk) (Homo sapiens (Human), UniProt Q06187); test: Btk Kinase Inhibition Assay (fluorescence polarization); format: biochemical; details: 10 μM ATP, 250 μM substrate, 60 minutes; Ki calculated from IC50 using the Cheng-Prusoff equation
Description: Kinase Binding Btk Kinase Inhibition Assay
Fluorescence polarization-based kinase assays were performed in 384 well-plate format using histidine tagged recombinant human full-length Bruton Agammaglobulinemia Tyrosine Kinase (Btk) and a modified protocol of the KinEASE™ FP Fluorescein Green Assay supplied from Millipore. Kinase reaction were performed at room temperature for 60 minutes in presence of 250 μM substrate, 10 μM ATP and variable test article concentrations. The reaction was stopped with EDTA/kinase detection reagents and the polarization measured on a Tecan 500 instrument. From the dose-response curve obtained, the IC50 was calculated using Graph Pad Prisms® using a non linear fit curve. The Km for ATP on each enzyme was experimentally determined and the Ki values calculated using the Cheng-Prusoff equation (see: Cheng Y, Prusoff W H. (1973) Relationship between the inhibition constant (K1) and the concentration of inhibitor which causes 50 percent inhibition (I50) of an enzymatic reaction”. Biochem Pharmacol 22 (23): 3099-108).

[2] = system: Splenocytes (B cell proliferation stimulated with anti-IgM F(ab′)2); test: Splenic Cell Proliferation Assay; format: cell-based; details: Mus musculus, Splenocyte, 72 h, CD1 mouse splenocytes, 2.5 ug/ml anti-IgM F(ab′)2 for 72 h, Cell Titer-Glo; read-out: EC50 (nM), Inhibition of splenic cell proliferation
Description: Splenic Cell Proliferation Assay
Splenocytes were obtained from 6 week old male CD1 mice (Charles River Laboratories Inc.). Mouse spleens were manually disrupted in PBS and filtered using a 70 um cell strainer followed by ammonium chloride red blood cell lysis. Cells were washed, resuspended in Splenocyte Medium (HyClone RPMI supplemented with 10% heat-inactivated FBS, 0.5× non-essential amino acids, 10 mM HEPES, 50 uM beta mercaptoethanol) and incubated at 37° C., 5% CO2 for 2 h to remove adherent cells. Suspension cells were seeded in 96 well plates at 50,000 cells per well and incubated at 37° C., 5% CO2 for 1 h. Splenocytes were pre-treated in triplicate with 10,000 nM curves of Formula 1 compounds for 1 h, followed by stimulation of B cell proliferation with 2.5 ug/ml anti-IgM F(ab′)2 (Jackson ImmunoResearch) for 72 h. Cell proliferation was measured by Cell Titer-Glo Luminescent Assay (Promega). EC50 values (50% proliferation in the presence of compound as compared to vehicle treated controls) were calculated from dose response compound curves using GraphPad Prism Software.

Chain of recombinant human full-length Bruton Agammaglobulinemia Tyrosine Kinase (Btk) (Q06187 whole entry): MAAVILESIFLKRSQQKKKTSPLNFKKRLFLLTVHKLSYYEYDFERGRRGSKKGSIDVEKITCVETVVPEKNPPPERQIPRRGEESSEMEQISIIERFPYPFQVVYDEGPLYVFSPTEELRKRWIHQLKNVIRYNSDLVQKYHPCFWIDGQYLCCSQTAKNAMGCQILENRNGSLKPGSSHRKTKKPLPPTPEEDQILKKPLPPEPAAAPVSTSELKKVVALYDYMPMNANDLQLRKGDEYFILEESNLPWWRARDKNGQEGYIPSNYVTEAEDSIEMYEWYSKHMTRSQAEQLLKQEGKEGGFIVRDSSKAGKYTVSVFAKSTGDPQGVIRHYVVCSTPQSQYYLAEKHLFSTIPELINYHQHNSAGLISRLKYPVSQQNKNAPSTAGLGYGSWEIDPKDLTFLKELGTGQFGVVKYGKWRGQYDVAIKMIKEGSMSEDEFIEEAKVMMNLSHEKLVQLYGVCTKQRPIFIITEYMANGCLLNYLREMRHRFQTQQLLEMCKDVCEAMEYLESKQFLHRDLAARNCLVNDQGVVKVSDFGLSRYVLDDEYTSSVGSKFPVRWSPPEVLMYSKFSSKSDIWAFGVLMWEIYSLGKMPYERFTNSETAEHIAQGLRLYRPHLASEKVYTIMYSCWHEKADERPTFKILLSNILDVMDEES

Structure (SMILES)	Ki [1]	EC50 [2]
Nc1ncnc2[nH]nc(-c3ccc(Oc4cccc(OCc5ccccc5)c4)cc3)c12 [Compound 1]	< 100 nM	100 to 1000 nM
Nc1ncnc2c1c(-c1ccc(Oc3cccc(OCc4ccccc4)c3)cc1)nn2C1CCCC1 [Compound 2]	< 100 nM	100 to 1000 nM
CC(C)(C)OC(=O)N1CCC[C@@H](n2nc(-c3ccc(Oc4cccc(OCc5ccccc5)c4)cc3)c3c(N)ncnc32)C1 [Compound 3]	< 100 nM	100 to 1000 nM
Nc1ncnc2c1c(-c1ccc(Oc3cccc(OCc4ccccc4)c3)cc1)nn2[C@@H]1CCCNC1 [Compound 4]	< 100 nM	100 to 1000 nM
C=CC(=O)N1CCC[C@@H](n2nc(-c3ccc(Oc4cccc(OCc5ccccc5)c4)cc3)c3c(N)ncnc32)C1 [Compound 5]	< 100 nM	< 100 nM
CC(=O)N1CCC[C@@H](n2nc(-c3ccc(Oc4cccc(OCc5ccccc5)c4)cc3)c3c(N)ncnc32)C1 [Compound 6]	< 100 nM	< 100 nM
CCCC(=O)N1CCC[C@@H](n2nc(-c3ccc(Oc4cccc(OCc5ccccc5)c4)cc3)c3c(N)ncnc32)C1 [Compound 7]	< 100 nM	100 to 1000 nM
CC(C)C(=O)N1CCC[C@@H](n2nc(-c3ccc(Oc4cccc(OCc5ccccc5)c4)cc3)c3c(N)ncnc32)C1 [Compound 8]	< 100 nM	< 100 nM
Nc1ncnc2c1c(-c1ccc(Oc3cccc(OCc4ccc(Cl)cc4)c3)cc1)nn2C1CCCC1 [Compound 9]	< 100 nM	100 to 1000 nM
COc1cccc(COc2cccc(Oc3ccc(-c4nn(C5CCCC5)c5ncnc(N)c45)cc3)c2)c1 [Compound 10]	< 100 nM	100 to 1000 nM
COc1ccc(COc2cccc(Oc3ccc(-c4nn(C5CCCC5)c5ncnc(N)c45)cc3)c2)cc1 [Compound 11]	< 100 nM	100 to 1000 nM
N#Cc1ccccc1COc1cccc(Oc2ccc(-c3nn(C4CCCC4)c4ncnc(N)c34)cc2)c1 [Compound 12]	< 100 nM	100 to 1000 nM
Nc1ncnc2c1c(-c1ccc(Oc3cccc(COc4ccccc4)c3)cc1)nn2C1CCCC1 [Compound 13]	< 100 nM	< 100 nM
Cn1nc(-c2ccc(Oc3cccc(OCc4ccccc4)c3)cc2)c2c(N)ncnc21 [Compound 16]	< 100 nM	100 to 1000 nM
Cn1nc(-c2ccc(Oc3cccc(COc4ccccc4C#N)c3)cc2)c2c(N)ncnc21 [Compound 17]	< 100 nM	100 to 1000 nM
Cc1ncc(COc2cccc(Oc3ccc(-c4nn(C)c5ncnc(N)c45)cc3)c2)s1 [Compound 18]	< 100 nM	< 100 nM
Cn1nc(-c2ccc(Oc3cccc(OCc4cncs4)c3)cc2)c2c(N)ncnc21 [Compound 19]	< 100 nM	100 to 1000 nM
Cn1nc(-c2ccc(Oc3cccc(OCc4ccccc4C(F)(F)F)c3)cc2)c2c(N)ncnc21 [Compound 20]	< 100 nM	< 100 nM
Nc1ncnc2c1c(-c1ccc(Oc3cccc(OCc4ccccc4)c3)cc1)nn2C1CCOCC1 [Compound 21]	< 100 nM	< 100 nM
N#Cc1ccccc1OCc1cccc(Oc2ccc(-c3nn(C4CCOCC4)c4ncnc(N)c34)cc2)c1 [Compound 22]	< 100 nM	< 100 nM
Nc1ncnc2c1c(-c1ccc(Oc3cccc(OCc4ccccc4C(F)(F)F)c3)cc1)nn2C1CCOCC1 [Compound 23]	< 100 nM	< 100 nM
CC(=O)N1CCC[C@@H](n2nc(-c3ccc(Oc4cccc(COc5ccccc5C#N)c4)cc3)c3c(N)ncnc32)C1 [Compound 25]	< 100 nM	< 100 nM
CC(=O)N1CCC[C@@H](n2nc(-c3ccc(Oc4cccc(OCc5ccccc5C(F)(F)F)c4)cc3)c3c(N)ncnc32)C1 [Compound 26]	< 100 nM	< 100 nM

Structure (SMILES)	Ki [1]	EC50 [2]
CC(=O)N1CCC[C@@H](n2nc(-c3ccc(Oc4cccc(OCc5cncs5)c4)cc3)c3c(N)ncnc32)C1 [Compound 27]	< 100 nM	< 100 nM
CC(=O)N1CCC[C@@H](n2nc(-c3ccc(Oc4cccc(OCc5ccccc5C#N)c4)cc3)c3c(N)ncnc32)C1 [Compound 28]	< 100 nM	< 100 nM
Nc1ncnc2c1c(-c1ccc(Oc3cccc(OCc4ccccc4C(F)(F)F)c3)cc1)nn2C1CCCC1 [Compound 29]	< 100 nM	< 100 nM
Cn1nc(-c2ccc(Oc3cccc(OCc4ccccc4C#N)c3)cc2)c2c(N)ncnc21 [Compound 30]	< 100 nM	< 100 nM
Cn1nc(-c2ccc(Oc3cccc(COc4ccccc4C(F)(F)F)c3)cc2)c2c(N)ncnc21 [Compound 31]	< 100 nM	100 to 1000 nM
Nc1ncnc2c1c(-c1ccc(Oc3cccc(COc4ccccc4C(F)(F)F)c3)cc1)nn2C1CCCC1 [Compound 32]	< 100 nM	< 100 nM
CC(=O)N1CCC[C@@H](n2nc(-c3ccc(Oc4cccc(COc5ccccc5C(F)(F)F)c4)cc3)c3c(N)ncnc32)C1 [Compound 33]	< 100 nM	< 100 nM
CN(C)CCn1nc(-c2ccc(Oc3cccc(OCc4cncs4)c3)cc2)c2c(N)ncnc21 [Compound 34]	< 100 nM	100 to 1000 nM
N#Cc1ccccc1COc1cccc(Oc2ccc(-c3nn(C4CCOCC4)c4ncnc(N)c34)cc2)c1 [Compound 35]	< 100 nM	< 100 nM
Nc1ncnc2c1c(-c1ccc(Oc3cccc(COc4ccccc4C(F)(F)F)c3)cc1)nn2C1CCOCC1 [Compound 36]	< 100 nM	< 100 nM
Cc1ncc(COc2cccc(Oc3ccc(-c4nn(C5CCCC5)c5ncnc(N)c45)cc3)c2)s1 [Compound 37]	< 100 nM	< 100 nM
Cc1ncc(COc2cccc(Oc3ccc(-c4nn(C5CCOCC5)c5ncnc(N)c45)cc3)c2)s1 [Compound 38]	< 100 nM	< 100 nM
Nc1ncnc2c1c(-c1ccc(Oc3cccc(OCc4cncs4)c3)cc1)nn2CCN1CCCC1 [Compound 39]	< 100 nM	100 to 1000 nM
CN1CCN(CCn2nc(-c3ccc(Oc4cccc(OCc5cncs5)c4)cc3)c3c(N)ncnc32)CC1 [Compound 40]	< 100 nM	100 to 1000 nM
Nc1ncnc2c1c(-c1ccc(Oc3cccc(OCc4cncs4)c3)cc1)nn2CCc1ccncc1 [Compound 41]	< 100 nM	100 to 1000 nM
Nc1ncnc2c1c(-c1ccc(Oc3cccc(OCc4cncs4)c3)cc1)nn2CCc1ccccc1 [Compound 42]	< 100 nM	< 100 nM
Nc1ncnc2c1c(-c1ccc(Oc3cccc(OCc4cncs4)c3)cc1)nn2C1CCNCC1 [Compound 43]	< 100 nM	100 to 1000 nM
Nc1ncnc2c1c(-c1ccc(Oc3cccc(OCc4cncs4)c3)cc1)nn2CCN1CCOCC1 [Compound 44]	< 100 nM	< 100 nM
CC(=O)n1nc(-c2ccc(Oc3cccc(OCc4ccccc4)c3)cc2)c2c(N)ncnc21 [Compound 45]		100 to 1000 nM
CC(=O)N1CCC(n2nc(-c3ccc(Oc4cccc(OCc5cncs5)c4)cc3)c3c(N)ncnc32)CC1 [Compound 47]	< 100 nM	< 100 nM
Cc1ncc(COc2cc(F)cc(Oc3ccc(-c4nn(C[C@@H]5CCCN5)c5ncnc(N)c45)cc3)c2)s1 [Compound 56]		100 to 1000 nM
[2H]C([2H])(Oc1cc(F)cc(Oc2ccc(-c3nn(C4CCOCC4)c4ncnc(N)c34)c(F)c2)c1)c1cncn1C [Compound 89]		< 100 nM
[2H]C([2H])(Oc1cc(F)cc(Oc2ccc(-c3nn(C4CCOCC4)c4ncnc(N)c34)cc2)c1)c1ccc(C)nc1 [Compound 94]		< 100 nM
